# According to the NIST ThermoML archive (doi:10.1021/acs.jced.5b00135):
# ± gives the expanded uncertainty stated by the source.
# Columns and labels:
# [1] = Crystal; DTA
# [2] = Molar enthalpy of transition or fusion; settings: Crystal; DSC
structure (smiles),measurement,setting,value
C=CC(=O)NC(C)(C)C [N-tert-butylacrylamide],Normal melting temperature,[1],128.50 ± 0.7 °C
same,Molar enthalpy of transition or fusion,[2],5.16 ± 0.263 kcal/mol
